The results in this text go back to ChEMBL document CHEMBL5375943, “The Importance of Tracking "Missing" Metabolites: How and Why?” (J Med Chem, 2023).

The target in data set [1] is Cytochrome P450 3A4 (Homo sapiens, UniProt P08684). In words: Inhibition of CYP3A4 in human liver microsome. The data set is classed as ADME, microsomes. (In general: Microsomes from liver hold many membrane-bound enzymes, among them those of drug oxidation.)
Data set [2] can be described thus: Clearance in Wistar rat at 3 mg/kg, iv incubated for 24 hrs by LC-MS/MS analysis. The data set is classed as ADME, organism-based. As to conditions: in vivo.
A short description of data set [3]: AUC (0 to t) in Sprague-Dawley rat at 10 mg/kg, po. The data set is classed as ADME, organism-based. Set-up: dose 10 mg/kg, route po. As to conditions: in vivo.
Data set [4] in a line: Elimination half life in human liver microsomes. The data set is classed as ADME, Microsome. Conditions: read-out: beta t1/2 (converted).
Data set [5] can be described thus: Oral bioavailability in ICR mouse plasma at 5 mg/kg by LC-MS/MS analysis. The data set is classed as ADME, organism-based.
Data set [6] is described as follows: Stability in human plasma assessed as compound remaining incubated for 10 mins relative to control. Conditions: read-out: Stability. The class given is ADME, cell-free.
Data set [7] in a line: Elimination half life in human. The class given is ADME. Conditions: read-out: beta t1/2.
Data set [8] can be described thus: Metabolic stability in human plasma assessed as half life.

Molecules are shown by their SMILES. pIC50: −log10 of the molar value. Where only a bound is given, the exact number is not on record here.

Chain of Cytochrome P450 3A4 (P08684 whole entry): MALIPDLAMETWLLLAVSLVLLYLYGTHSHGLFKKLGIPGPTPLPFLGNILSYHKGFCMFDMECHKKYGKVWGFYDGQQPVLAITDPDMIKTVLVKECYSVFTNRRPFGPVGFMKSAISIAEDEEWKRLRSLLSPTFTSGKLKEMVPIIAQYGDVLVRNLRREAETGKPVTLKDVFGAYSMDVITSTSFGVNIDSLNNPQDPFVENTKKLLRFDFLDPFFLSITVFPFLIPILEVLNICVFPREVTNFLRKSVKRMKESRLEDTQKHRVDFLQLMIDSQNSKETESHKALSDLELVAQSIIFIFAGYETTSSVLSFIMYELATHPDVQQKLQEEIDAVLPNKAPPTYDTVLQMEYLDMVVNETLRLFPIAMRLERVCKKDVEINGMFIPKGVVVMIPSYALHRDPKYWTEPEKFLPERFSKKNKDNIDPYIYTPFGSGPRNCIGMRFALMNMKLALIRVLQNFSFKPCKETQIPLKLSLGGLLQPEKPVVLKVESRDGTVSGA

What is called pIC50 is the IC50 on a negative log10 scale, so that one unit is a factor of ten. Low values mean a high IC50, high ones a low IC50. Regarding `C[C@H](c1nc2ncccc2c(=O)n1-c1ccc(O)cc1)N(Cc1cccnc1)C(=O)Cc1ccc(OC(F)(F)F)cc1`, in data set [1], the pIC50 was 6.26.

As a reminder, the clearance is the volume of plasma or blood freed of the substance per unit of time. A high value points to efficient removal. Turning to `C[C@H](O)[C@H]1CC[C@H]2[C@@H]3CC[C@H]4CC(C(=O)O)=CC[C@]4(C)[C@H]3CC[C@]12C`, in data set [2], the clearance is 0.4 mL/min/kg.

By AUC(0-t) is commonly meant the area under the concentration-time curve up to a stated or last time point. A high value points to more exposure. For orientation: bioavailability means dose-corrected exposure relative to a reference, in per cent. Read a high bioavailability as good availability. As to `CCc1cc(/C(C)=N/OCc2ccc(C3CCCCC3)c(C(F)(F)F)c2)ccc1CN1CC(C(=O)O[C@H]2CC[C@@]3(C)C(=CC[C@H]4[C@@H]5CC[C@H]([C@H](C)CCCC(C)C)[C@@]5(C)CC[C@@H]43)C2)C1`, the AUC(0-t) in data set [3] is 0.19 µM·h. Besides, the half-life in data set [4] was 155 h. Besides, in data set [5], the bioavailability is 14.7%. Regarding `NCCOP(=O)(O)OC[C@@H](O)CNC(=O)c1ccncc1Nc1ccc(I)cc1F`, in data set [6], the remaining at 10 min came out at 30%. For `C[C@H](OS(=O)(=O)O)[C@H]1CC[C@H]2[C@@H]3CC[C@H]4CC(C(=O)O)=CC[C@]4(C)[C@H]3CC[C@]12C`, the half-life in data set [4] was 171 h. Besides, the bioavailability in data set [5] stood at 20.4%.

As for `OC1CC(O)(CN2CCC(COc3noc4cccc(O[C@H]5CCOC5)c34)CC2)CCO1` (stereo partly specified), the pIC50 in data set [1] is 6.22. Regarding `COc1ccc(Cl)cc1[C@]1(F)C(=O)Nc2cc(C(F)(F)F)ccc21` [FLINDOKALNER], the half-life in data set [7] was greater than 168 h.

Turning to `COc1ccc2[nH]c([S+]([O-])Cc3ncc(C)c(OC)c3C)nc2c1` (stereo unspecified) [OMEPRAZOLE], the half-life in data set [8] was 1 h.
